The results in this text go back to US5523315A, “N-(hydroxyethyl)butanediamide derivatives” (Bio-Mega/Boehringer Ingelheim Research Inc., priority 1993, dated 1996).

The assay has as its target T1, human renin (Homo sapiens, UniProt P00797).
T1 construct: A human plasma pool is used as the source of both the substrate (angiotensinogen) and the enzyme (renin); from tissue; host or cells: pooled human plasma
T1 sequence (P00797 67-406): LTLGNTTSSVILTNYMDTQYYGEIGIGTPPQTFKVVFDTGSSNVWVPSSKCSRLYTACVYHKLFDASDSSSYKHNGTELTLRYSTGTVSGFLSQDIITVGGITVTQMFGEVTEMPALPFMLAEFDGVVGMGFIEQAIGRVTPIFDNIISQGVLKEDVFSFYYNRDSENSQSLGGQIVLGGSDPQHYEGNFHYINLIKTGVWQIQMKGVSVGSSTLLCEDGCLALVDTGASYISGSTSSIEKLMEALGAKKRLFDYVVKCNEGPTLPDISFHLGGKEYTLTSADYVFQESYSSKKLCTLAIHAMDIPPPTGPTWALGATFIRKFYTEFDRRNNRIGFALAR
The assay is described as follows: plasma renin assay (inhibition of human renin; angiotensin I generated, measured by radioimmunoassay). In kind it is biochemical. Conditions: human plasma pool, pH 6.0, 2 h incubation at 37°. As for the experimental part: The assay is performed as follows: The test compound (i.e. the inhibitor) is dissolved in dimethylsulfoxide (1 mM stock solution) and diluted with an aqueous buffer solution of 270 mM 2-(N-morpholino)ethanesulfonic acid and 1% human serum albumin (pH 5.85, also containing dimercaprol and 8-hydroxyquinoline sulfate in accordance with the instructions of the RIA kit noted below) to give an assay mixture in which the final dimethylsulfoxide content is 1% (v/v).
A human plasma pool is used as the source of both the substrate (angiotensinogen) and the enzyme (renin). The reaction is initiated by the addition of 50 μL of human plasma pool to 50 μL of various concentrations of inhibitor in the 1% dimethylsulfoxide assay buffer. The plasma renin activity is measured by the amount of angiotensin I generated at pH 6.0 following a 2 h incubation at 37°.
Quantitation of angiotensin I is performed by radioimmunoassay (RIA kit from New England Nuclear-Dupont, Mississauga, ON, Canada). The enzymatic activity of renin is expressed in ng of angiotensin I generated (/mL/2 h). The extent of inhibition of the reaction is determined from the amount of angiotensin I generated in reference to a control prepared without inhibitor. Nonlinear regression analysis is used to calculate the IC50 values, i.e. the molar concentration of the test compound required to cause a 50% inhibition of the enzyme activity.
`CC(C)C[C@H](O)[C@H](O)[C@H](CC1CCCCC1)NC(=O)[C@@H](CC(=O)N(Cc1ccncc1)CC1(O)CCCCC1)CC1CC1` [Compound 29]: 0.031 µM corresponded to half-maximal inhibition (IC50).
`CC(C)C[C@H](O)[C@H](O)[C@H](CC1CCCCC1)NC(=O)[C@@H](CC(=O)N(CC(=O)N(C)CCc1ccccn1)CC1(O)CCCCCC1)Cc1csc(N)n1` [Compound 59, N^4-[(1-hydroxycycloheptyl)methyl]-N^4 -{2-{methyl[2-(2-pyridinyl)ethyl]amino}-2-oxoethyl}-N^1-[1(S)-(cyclohexylmethyl)-2(R),3(S)-dihydroxy-5-methylhexyl]-2(R)-[(2-amino-4-thiazolyl)methyl]butanediamide]: the midpoint of inhibition, the IC50, lay at 0.0015 µM.
With `CC(C)C[C@H](O)[C@H](O)[C@H](CC1CCCCC1)NC(=O)[C@@H](CC(=O)N(CCO)CC1(O)CCCCC1)Cc1cscn1` [Compound 37, N^4-[(1-hydroxycyclohexyl)methyl]-N^4-(2-hydroxyethyl)-N^1-[1(S)-(cyclohexylmethyl)-2(R),3(S)-dihydroxy-5-methylhexyl]-2(R)-(4-thiazolylmethyl)butanediamide], the midpoint of inhibition, the IC50, lay at 0.016 µM.
The molecule `CC(C)C[C@H](O)[C@H](O)[C@H](CC1CCCCC1)NC(=O)[C@@H](CC(=O)NC[C@H](O)c1ccccc1)CC1CC1` [Compound 9, N^4-(R)-(2-hydroxy-2-phenylethyl)-N^1-[1(S)-(cyclohexylmethyl)-2(R),3(S)-dihydroxy-5-methylhexyl]-2(R)-(cyclopropylmethyl)butanediamide] returned an IC50 of 0.072 µM.
In the case of `CC(C)C[C@H](O)[C@H](O)[C@H](CC1CCCCC1)NC(=O)[C@@H](CC(=O)N(Cc1ccccc1)C[C@H](O)c1ccccc1)CC1CC1` [Compound 11, N^4-benzyl-N^4-(R)-(2-hydroxy-2-phenylethyl)-N^1-[1(S)-(cyclohexylmethyl)-2(R),3(S)-dihydroxy-5-methylhexyl]-2(R)-(cyclopropylmethyl)butanediamide], it took 0.11 µM to reach half-maximal inhibition (IC50).
In the case of `CC(C)C[C@H](O)[C@H](O)[C@H](CC1CCCCC1)NC(=O)[C@@H](CC(=O)N(CC(=O)N(C)C)CC1(O)CCCCCC1)Cc1csc(N)n1` [Compound 53, N^4-[(1-hydroxycycloheptyl)methyl]-N^4-[2-(dimethylamino)-2-oxoethyl]-N^1-[1(S)-(cyclohexylmethyl)-2(R),3(S)-dihydroxy-5-methylhexyl]-2(R)-[(2-amino-4-thiazolyl)methyl]-butanediamide] it was 0.002 µM.
As to `CC(C)C[C@H](O)[C@H](O)[C@H](CC1CCCCC1)NC(=O)[C@@H](CC(=O)N(Cc1cccnc1)CC1(O)CCCCC1)CC1CC1` [Compound 26, N^4-[(1-hydroxycyclohexyl)methyl]-N^4-(3-pyridinylmethyl)-N^1-[1(S)-(cyclohexylmethyl)-2(R),3(S)-dihydroxy-5-methylhexyl]-2(R)-(cyclopropylmethyl)butanediamide], 0.026 µM corresponded to half-maximal inhibition (IC50).
In turn, `CC(C)C[C@H](O)[C@H](O)[C@H](CC1CCCCC1)NC(=O)[C@@H](CC(=O)N(Cc1ccccn1)CC1(O)CCCCC1)CC1CC1` [Compound 4, N^4-[(1-hydroxycyclohexyl)methyl]-N^4-(2-pyridinylmethyl)-N^1-[1(S)-(cyclohexylmethyl)-2(R),3(S)-dihydroxy-5-methylhexyl]-2(R)-(cyclopropylmethyl)butanediamide] gave an IC50 of 0.036 µM.
As to `CC(C)C[C@H](O)[C@H](O)[C@H](CC1CCCCC1)NC(=O)[C@@H](CC(=O)N(Cc1ccc2c(c1)OCO2)CC1(O)CCCCC1)Cc1cscn1` [Compound 33, N^4-[(1-hydroxycyclohexyl)methyl]-N^4-[(3,4-methylenedioxyphenyl)methyl]-N^1-[1(S)-(cyclohexylmethyl)-2(R),3(S)-dihydroxy-5-methylhexyl]-2(R)-(4-thiazolylmethyl)butanediamide], the IC50 came to 0.011 µM.
Consider `CC(C)C[C@H](O)[C@H](O)[C@H](CC1CCCCC1)NC(=O)[C@@H](CC(=O)N(CC1CCCCCC1)CC(C)(C)O)Cc1csc(N)n1` [Compound 48, N^4-(cycloheptylmethyl)-N^4-(2-hydroxy-2-methylpropyl)-N^1-[1(S)-(cyclohexylmethyl)-2(R),3(S)-dihydroxy-5-methylhexyl]-2(R)-[(2-amino-4-thiazolyl)methyl]butanediamide], for which the IC50 came to 0.005 µM.
In turn, `CC(C)C[C@H](O)[C@H](O)[C@H](CC1CCCCC1)NC(=O)[C@@H](CC(=O)N(C)CC1(O)CCCCC1)Cc1c[nH]cn1` [Compound 35, N^4-[(1-hydroxycyclohexyl)methyl]-N^4-methyl-N^1-[1(S)-(cyclohexylmethyl)-2(R),3(S)-dihydroxy-5-methylhexyl]-2(R)-(1H-imidazol-4-ylmethyl)-butanediamide] showed a half-inhibitory concentration (IC50) of 0.067 µM.
Take `CC(C)C[C@H](O)[C@H](O)[C@H](CC1CCCCC1)NC(=O)[C@@H](CC(=O)N(CC1CCCCC1)CC(C)(C)O)CC1CC1` [Compound 32, N^4-(cyclohexylmethyl)-N^4-(2-hydroxy-2-methylpropyl)-N^1-[1(S)-(cyclohexylmethyl)-2(R),3(S)-dihydroxy-5-methylhexyl]-2(R)-(cyclopropylmethyl)butanediamide]: the IC50 came to 0.046 µM.
Molecule `CC(C)C[C@H](O)[C@H](O)[C@H](CC1CCCCC1)NC(=O)[C@@H](CC(=O)N(CC(=O)N(C)C)CC1(O)CCCCC1)Cc1csc(N)n1` [Compound 46, N^4-[2-(dimethylamino)-2-oxoethyl]-N^4-[(1-hydroxycyclohexyl)methyl]-N^1-[1(S)-(cyclohexylmethyl)-2(R),3(S)-dihydroxy-5-methylhexyl]-2(R)-[(2-amino-4-thiazolyl)methyl]butanediamide] yielded an IC50 of 0.0013 µM.
Turning to `CC(C)C[C@H](O)[C@H](O)[C@H](CC1CCCCC1)NC(=O)[C@@H](CC(=O)N(CC(=O)N(C)C)CC(O)c1ccccc1)Cc1cscn1` (mixture of isomers) [Compound 44, N^4-[2-(dimethylamino)-2-oxoethyl]-N^4-[2(R,S)-hydroxy-2-phenylethyl]-N^1-[1(S)-(cyclohexylmethyl)-2(R),3(S)-dihydroxy-5-methylhexyl]-2(R)-(4-thiazolylmethyl)butanediamide], the IC50 came out at 0.01 µM.
`CC(C)C[C@H](O)[C@H](O)[C@H](CC1CCCCC1)NC(=O)[C@@H](CC(=O)N(CC(=O)N(C)C)CC1(O)CCCCC1)Cc1cscn1` [Compound 34, N^4-[(1-hydroxycyclohexyl)methyl]-N^4-[2-(dimethylamino)-2-oxoethyl]-N^1-[1(S)-(cyclohexylmethyl)-2(R),3(S)-dihydroxy-5-methylhexyl]-2(R)-(4-thiazolylmethyl)butanediamide] returned an IC50 of 0.0016 µM.
On to `CC(C)C[C@H](O)[C@H](O)[C@H](CC1CCCCC1)NC(=O)[C@@H](CC(=O)N(CC(=O)C(C)C)CC1CCCCC1)Cc1cscn1` [Compound 61, N^4-(cyclohexylmethyl)-N^4-(3-methyl-2-oxobutyl)-N^1-[1(S)-(cyclohexylmethyl)-2(R),3(S)-dihydroxy-5-methylhexyl]-2(R)-(4-thiazolylmethyl)butanediamide], for which it took 0.009 µM to reach half-maximal inhibition (IC50).
In the case of `CC(C)C[C@H](O)[C@H](O)[C@H](CC1CCCCC1)NC(=O)[C@@H](CC(=O)NC[C@@H](O)C1CCCCC1)CC1CC1` [Compound 20 (S), N^4-(S)-(2-cyclohexyl-2-hydroxyethyl)-N^1-[1(S)-(cyclohexylmethyl)-2(R),3(S)-dihydroxy-5-methylhexyl]-2(R)-(cyclopropylmethyl)butanediamide] it was 0.15 µM.
